Test [1] deals with T1, human P1R (Homo sapiens, UniProt Q03431).
T1 construct: expressed in transfected cells; host or cells: HKRK-B28 (porcine kidney LLC-PK1, stably transfected)
T1 sequence (Q03431 27-593): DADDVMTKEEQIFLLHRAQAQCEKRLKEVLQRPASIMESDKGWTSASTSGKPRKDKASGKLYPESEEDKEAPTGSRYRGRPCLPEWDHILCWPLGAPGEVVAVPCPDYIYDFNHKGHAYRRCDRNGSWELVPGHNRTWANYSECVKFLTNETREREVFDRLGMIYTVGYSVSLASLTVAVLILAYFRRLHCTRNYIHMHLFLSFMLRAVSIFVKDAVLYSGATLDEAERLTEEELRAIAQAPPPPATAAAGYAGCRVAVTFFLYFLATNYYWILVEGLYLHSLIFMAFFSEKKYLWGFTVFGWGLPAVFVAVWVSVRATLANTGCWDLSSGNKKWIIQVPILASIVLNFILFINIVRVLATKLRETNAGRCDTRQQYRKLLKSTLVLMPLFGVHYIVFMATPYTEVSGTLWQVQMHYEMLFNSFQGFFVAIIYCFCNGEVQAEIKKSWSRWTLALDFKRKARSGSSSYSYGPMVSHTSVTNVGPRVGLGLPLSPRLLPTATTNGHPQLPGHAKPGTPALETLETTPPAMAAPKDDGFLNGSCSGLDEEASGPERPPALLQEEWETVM
The test can be described thus: Competition binding in HKRK-B28 cells. The conditions noted are these: HKRK-B28 cells; for IC50 / Binding IC50: tracer 125I-[M]PTH(1-21)amide, 4 h at 4° C., N.B. = no binding detected at 10 μm peptide. The protocol: (§1) Cell Culture. The cell line HKRK-B28 (Takasu, H., et al., J. Bone Miner. Res. 14:11-20 (1999)) was derived from the porcine kidney cell line, LLC-PK1 by stable transfection with plasmid DNA encoding the human P1R and expresses ˜280,000 receptors per cell. These cells, as well as COS-7 cells and SaOS-2-B10 cells, were cultured at […] in T-75 flasks ([…]) in Dulbecco's modified Eagle's medium (DMEM) supplemented with fetal bovine serum (10%), penicillin G (20 units/ml), streptomycin sulfate (20 μg/ml) and amphotericin B (0.05 μg/ml) in a humidified atmosphere containing 5% CO2. Stock solutions of EGTA/trypsin and antibiotics were from GIBCO; fetal bovine serum was from Hyclone Laboratories (Logan, Utah). COS-7 cells sub-cultured in 24-well plates were transfected with plasmid DNA (200 ng per well) encoding the wild-type human P1R or truncated human P1R deleted for residues (24-181) (Shimizu, M., et al., J. Biol. Chem. 275:21836-21843 (2000)) that was purified by cesium chloride/ethidium bromide density gradient centrifugation, and FuGENE 6 transfection reagent (Roche Indianapolis Ind.) according to the manufacturer's recommended procedure. All cells, in 24-well plates, were treated with fresh media and shifted to 33° C. for 12 to 24 h prior to assay.
(§2) Competition Binding. Binding reactions were performed with HKRK-B28 cells or in COS-7 cells in 24-well plates. The cells were rinsed with 0.5 mL of binding buffer, and then treated successively with 100 μL binding buffer, 100 μL of binding buffer containing various amounts of unlabeled competitor ligand, and 100 μL of binding buffer containing ca. 100,000 cpm of ^125I-[M]PTH(1-21) or ^125I-[Aib^1,3,M]PTH(1-21)} (ca. 26 fmol; final volume=300 μL). Incubations were 4 to 6 h at 4° C., at which time near equilibrium conditions were attained. Cells were then placed on ice, the binding medium was removed, and the monolayer was rinsed three times with 0.5 mL of cold binding buffer. The cells were subsequently lysed with 0.5 mL […] and counted for radioactivity. For each tracer and in each experiment, the non-specific binding was determined as the radioactivity that bound in the presence of the same unlabeled peptide at a concentration of 1 μM, and was ˜1% of total radioactivity added for each tracer. The maximum specific binding (B0) was the total radioactivity bound in the absence of competing ligand, corrected for nonspecific binding, and for each tracer, ranged from 8% to 20% of the total radioactivity added. Nonlinear regression was used to calculate binding IC50 values (see below). Scatchard transformations of homologous competition binding data derived from studies with 26 fmol of ^125I-[Aib^1,3,M]PTH(1-21) were employed for estimations of apparent equilibrium dissociation constant (kDapps) and total number of ligand binding sites (Bmax), assuming a single class of binding sites and equal affinities of the iodinated and non iodinated ligand.
Data Calculation. Calculations were performed using Microsoft® Excel. Nonlinear regression analyses of binding and cAMP dose-response data were performed using the four-parameter equation: yp=Min+[(Max−Min)/(1+(IC50/x)^slope)]. The Excel Solver function was utilized for parameter optimization, as described previously (Carter, P. H., et al., Endocrinology 140: 4972-4981 (1999); Bowen, W. P., and Jerman, J. C., Trends in Pharmacol. Sci. 16: 413-417 (1995)). Differences between paired data sets were statistically evaluated using a one-tailed Student's t-test, assuming unequal variances for the two sets.
The P1R-binding properties of these analogs were assayed in competition studies performed in […]. In previous studies, PTH(1-14) binding could not be detected using ^125I-PTH(1-34) and related N-terminally intact and relatively unmodified radioligands (Luck, M. D., et al., Molecular Endocrinology 13:670-680 (1999)). […]

Test [2] addresses T2, wild-type human P1R (hP1R-WT) (Homo sapiens, UniProt Q03431).
T2 construct: expressed in transfected cells; host or cells: COS-7 (transient, FuGENE 6)
T2 sequence (Q03431 27-593): T1 sequence (Q03431 27-593)
The test can be described thus: Competition binding in COS-7 cells expressing hP1R-WT. The method, then: as §1, §2
Data Calculation. Calculations were performed using Microsoft® Excel. Nonlinear regression analyses of binding and cAMP dose-response data were performed using the four-parameter equation: yp=Min+[(Max−Min)/(1+(IC50/x)^slope)]. […] Differences between paired data sets were statistically evaluated using a one-tailed Student's t-test, assuming unequal variances for the two sets. […]

Where [3] appears, read: COS-7 cells, hP1R-WT, tracer 125I-[Aib^1,3,M]PTH(1-21), N.B. = no inhibition of tracer binding.

Square brackets hold non-standard residues; d marks the D form. Peptide text beside a SMILES is read from it. hArg = N=C(N)NCCCC[C@H](N)C(=O)O; Aib = CC(C)(N)C(=O)O

The IC50 is the concentration at which inhibition is half-maximal. Higher therefore signals weaker potency.

For the compound `CCCC[C@H](NC(=O)[C@H](CCCNC(=N)N)NC(=O)[C@H](CCC(=O)O)NC(=O)[C@@H](NC(=O)[C@H](CO)NC(=O)[C@H](C)NC(=O)[C@H](CC(C)C)NC(=O)[C@H](Cc1c[nH]cn1)NC(=O)[C@H](CCCCN)NC(=O)CNC(=O)[C@H](CC(C)C)NC(=O)[C@H](CC(N)=O)NC(=O)[C@H](Cc1c[nH]cn1)NC(=O)[C@H](CCCC)NC(=O)[C@H](CC(C)C)NC(=O)[C@H](CCC(N)=O)NC(=O)[C@@H](NC(=O)[C@H](CCC(=O)O)NC(=O)[C@H](CO)NC(=O)[C@@H](NC(=O)[C@H](C)N)C(C)C)[C@@H](C)CC)C(C)C)C(=O)N[C@@H](CCC(N)=O)C(=O)N[C@@H](Cc1c[nH]c2ccccc12)C(=O)N[C@@H](CC(C)C)C(=O)N[C@@H](CCCNC(=N)N)C(=O)N[C@@H](CCCCN)C(=O)N[C@@H](CCCCN)C(=O)N[C@@H](CC(C)C)C(=O)N[C@@H](CCC(N)=O)C(=O)N[C@@H](CC(=O)O)C(=O)N[C@H](C(=O)N[C@@H](Cc1c[nH]cn1)C(=O)N[C@@H](CC(N)=O)C(=O)N[C@@H](Cc1ccc(O)cc1)C(N)=O)C(C)C` [PTH(1-34), [Nle^8,21, Tyr^34]PTH(1-34)amide, reference compound], in test [1], the 50% inhibitory concentration (IC50) was determined as 1.8e-08 ± 3e-09 M.
With `CC[C@H](C)[C@H](NC(=O)[C@H](CCC(=O)O)NC(=O)C(C)(C)NC(=O)[C@@H](NC(=O)C(C)(C)N)C(C)C)C(=O)N[C@@H](CCC(N)=O)C(=O)N[C@@H](CC(C)C)C(=O)N[C@@H](CCSC)C(=O)N[C@@H](Cc1c[nH]cn1)C(=O)N[C@@H](CCC(N)=O)C(N)=O` [[Aib^1,3,M]PTH(1-10), [Aib^1,3,Gln^10]PTH(1-10)] (H-[Aib]V[Aib]EIQLMHQ-NH2), the “Binding IC50” value in test [2] (setting [3]) was “N.B”; in test [1], “did not bind detachably”; in test [1] (M]PTH (1-10)), “N.B”.
Consider “H-AVSEIQLMHNLGKH-NH2 [PTH(1-14), reference compound]”, for which the “Binding IC50” value in test [2] (setting [3]) was “N.B”.
As to `CC[C@H](C)[C@H](NC(=O)[C@H](CCC(=O)O)NC(=O)C(C)(C)NC(=O)[C@@H](NC(=O)C(C)(C)N)C(C)C)C(=O)N[C@@H](CCC(N)=O)C(=O)N[C@@H](CC(C)C)C(=O)N[C@@H](CCSC)C(=O)N[C@@H](Cc1c[nH]cn1)C(=O)N[C@@H](CCC(N)=O)C(=O)N[C@@H](CCCCNC(=N)N)C(=O)N[C@@H](C)C(=O)N[C@@H](CCCCN)C(=O)N[C@@H](Cc1c[nH]c2ccccc12)C(N)=O` [[Aib^1,3,M]PTH(1-14), AibValAibGluIleGlnLeuMetHisGlnHarAlaLysTrp] (H-[Aib]V[Aib]EIQLMHQ[hArg]AKW-NH2), the “binding affinity, fold stronger than [M]PTH(1-14)” value in test [2] (P1R-WT) was roughly 10 fold. In addition, in test [1], the “fold improvement of apparent binding affinity relative to [M]PTH(1-14)” value is on record as 100 fold and the IC50 worked out at 1.3e-07 ± 2e-08 M. In addition, the “fold improvement of apparent binding affinity relative to [M]PTH(1-14)” value in test [1] (listed as Aib-1,3) is “approximately 100 fold”.
`CC[C@H](C)[C@H](NC(=O)[C@H](CCC(=O)O)NC(=O)C(C)(C)NC(=O)[C@@H](NC(=O)C(C)(C)N)C(C)C)C(=O)N[C@@H](CCC(N)=O)C(=O)N[C@@H](CC(C)C)C(=O)N[C@@H](CCSC)C(=O)N[C@@H](Cc1c[nH]cn1)C(=O)N[C@@H](CCC(N)=O)C(=O)N[C@@H](CCCCNC(=N)N)C(N)=O` [[Aib^1,3,M]PTH(1-11), AibValAibGluIleGlnLeuMetHisGlnHar] (H-[Aib]V[Aib]EIQLMHQ[hArg]-NH2): the IC50 in test [2] (setting [3]) was 16000 nM; in test [1] it was 9.7e-07 ± 3e-07 M.

The values above are taken from patent US7572765B2, “Conformationally constrained parathyroid hormone (PTH) analogs” (The General Hospital Corporation, priority 2001, dated 2009).
